# Reference: patent US20220249463A1, “METHODS OF ALTERING CARDIAC REMODELING USING COMPOUNDS THAT PROMOTE GLUCOSE OXIDATION” (IMBRIA PHARMACEUTICALS, INC., priority 2019, published 2022)
# Experiment: Stability of CV-8972 in aqueous solution at different concentrations and pH
# Assay type: physicochemical
# Experimental: The stability of CV-8972 was analyzed. Aqueous samples containing CV-8972 at different concentrations and pH were incubated for various periods and analyzed.
# Form A of CV-8972 were analyzed for stability in aqueous solution. Aqueous samples containing CV-8972 at different concentrations and pH were incubated for various periods and analyzed.
# [1] = 276-MBA-172 2 mg/mL pH 6 (Form A), 0 hrs, pH 6.1
# [2] = 276-MBA-172 2 mg/mL pH 6 (Form A), 1 hrs, pH 6.1
# [3] = 276-MBA-172 2 mg/mL pH 6 (Form A), 4 hrs, pH 6.1
# [4] = 276-MBA-172 2 mg/mL pH 6 (Form A), 6 hrs, pH 6.1
# [5] = 276-MBA-172 2 mg/mL pH 7 (Form A), 0 hrs, pH 6.7
# [6] = 276-MBA-172 2 mg/mL pH 7 (Form A), 1 hrs, pH 6.8
# [7] = 276-MBA-172 2 mg/mL pH 7 (Form A), 4 hrs, pH 6.7
# [8] = 276-MBA-172 2 mg/mL pH 7 (Form A), 6 hrs, pH 6.7
# [9] = 276-MBA-172 2 mg/mL pH 7 (Form A), 22 hrs, pH 6.8
# [10] = 276-MBA-172 10 mg/mL pH 6 (Form A), 0 hrs, pH 6.6
# [11] = 276-MBA-172 10 mg/mL pH 6 (Form A), 1 hrs, pH 6.8
# [12] = 276-MBA-172 10 mg/mL pH 6 (Form A), 4 hrs, pH 6.8
# [13] = 276-MBA-172 10 mg/mL pH 6 (Form A), 6 hrs, pH 6.7
# [14] = 276-MBA-172 10 mg/mL pH 6 (Form A), 22 hrs, pH 6.7
# [15] = 276-MBA-172 10 mg/mL pH 7 (Form A), 0 hrs, pH 7.1
# [16] = 276-MBA-172 10 mg/mL pH 7 (Form A), 1 hrs, pH 7.2
# [17] = 276-MBA-172 10 mg/mL pH 7 (Form A), 4 hrs, pH 7.1
# [18] = 276-MBA-172 10 mg/mL pH 7 (Form A), 6 hrs, pH 7.1
# [19] = 289-MBA-15-A 2 mg/mL pH 6 (Form B), 0 hrs, pH 6.9
# [20] = 289-MBA-15-A 2 mg/mL pH 6 (Form B), 1 hrs, pH 6.9
# [21] = 289-MBA-15-A 2 mg/mL pH 6 (Form B), 4 hrs, pH 6.8
# [22] = 289-MBA-15-A 2 mg/mL pH 6 (Form B), 6 hrs, pH 6.8
smiles,measurement,setting,value
"COc1ccc(CN2CCN(CCOC(=O)c3cccnc3)CC2)c(OC)c1OC [CV-8972, 2-(4-(2,3,4-trimethoxybenzyl)piperazin-1-yl)ethyl nicotinate]",Retention Time 4.2,[1],1.29
same,Retention Time 5.6,[1],98.01
same,Decrease in purity of CV-8972 between time points,[2],0.79
same,Retention Time 2.2,[2],1.5
same,Retention Time 4.2,[2],1.28
same,Retention Time 5.6,[2],97.22
same,Decrease in purity of CV-8972 between time points,[3],0.21
same,Retention Time 2.2,[3],2.03
same,Retention Time 4.2,[3],0.95
same,Retention Time 5.6,[3],97.01
same,Decrease in purity of CV-8972 between time points,[4],0.5
same,Retention Time 2.2,[4],2.47
same,Retention Time 4.2,[4],1.02
same,Retention Time 5.6,[4],96.51
same,Retention Time 2.2,[5],1.42
same,Retention Time 4.2,[5],1.05
same,Retention Time 5.6,[5],97.53
same,Decrease in purity of CV-8972 between time points,[6],2.47
same,Retention Time 2.2,[6],3.31
same,Retention Time 4.2,[6],1.06
same,Retention Time 4.7,[6],0.57
same,Retention Time 5.6,[6],95.06
same,Decrease in purity of CV-8972 between time points,[7],1.36
same,Retention Time 2.2,[7],4.21
same,Retention Time 2.6,[7],0.58
same,Retention Time 4.2,[7],0.82
same,Retention Time 4.7,[7],0.69
same,Retention Time 5.6,[7],93.7
same,Decrease in purity of CV-8972 between time points,[8],1.58
same,Retention Time 2.2,[8],5.63
same,Retention Time 2.6,[8],0.67
same,Retention Time 4.2,[8],0.74
same,Retention Time 4.7,[8],0.85
same,Retention Time 5.6,[8],92.12
same,Decrease in purity of CV-8972 between time points,[9],1.05
same,Retention Time 2.2,[9],6.26
same,Retention Time 2.6,[9],0.85
same,Retention Time 4.2,[9],0.85
same,Retention Time 4.7,[9],0.98
same,Retention Time 5.6,[9],91.07
same,Retention Time 2.2,[10],3.39
same,Retention Time 2.6,[10],0.6
same,Retention Time 4.2,[10],0.23
same,Retention Time 4.7,[10],0.54
same,Retention Time 5.6,[10],95.24
same,Decrease in purity of CV-8972 between time points,[11],1.81
same,Retention Time 2.2,[11],4.81
same,Retention Time 2.6,[11],0.81
same,Retention Time 4.2,[11],0.23
same,Retention Time 4.7,[11],0.73
same,Retention Time 5.6,[11],93.43
same,Decrease in purity of CV-8972 between time points,[12],1.61
same,Retention Time 2.2,[12],5.72
same,Retention Time 2.6,[12],0.9
same,Retention Time 4.2,[12],0.21
same,Retention Time 4.7,[12],0.83
same,Retention Time 5.6,[12],91.82
same,Decrease in purity of CV-8972 between time points,[13],0.02
same,Retention Time 2.2,[13],6.45
same,Retention Time 2.6,[13],0.81
same,Retention Time 4.7,[13],0.93
same,Retention Time 5.6,[13],91.8
same,Decrease in purity of CV-8972 between time points,[14],2.14
same,Retention Time 2.2,[14],7.38
same,Retention Time 2.6,[14],1.54
same,Retention Time 4.2,[14],0.13
same,Retention Time 4.7,[14],1.11
same,Retention Time 5.6,[14],89.66
same,Retention Time 2.2,[15],5.9
same,Retention Time 2.6,[15],0.94
same,Retention Time 4.2,[15],0.22
same,Retention Time 4.7,[15],0.78
same,Retention Time 5.6,[15],92.85
same,Decrease in purity of CV-8972 between time points,[16],3.8
same,Retention Time 2.2,[16],8.12
same,Retention Time 2.6,[16],1.45
same,Retention Time 4.2,[16],0.21
same,Retention Time 4.7,[16],1.17
same,Retention Time 5.6,[16],89.05
same,Decrease in purity of CV-8972 between time points,[17],2.25
same,Retention Time 2.2,[17],10.14
same,Retention Time 2.6,[17],1.48
same,Retention Time 4.2,[17],0.13
same,Retention Time 4.7,[17],1.46
same,Retention Time 5.6,[17],86.8
same,Decrease in purity of CV-8972 between time points,[18],2.01
same,Retention Time 2.2,[18],11.63
same,Retention Time 2.6,[18],1.78
same,Retention Time 4.2,[18],0.13
same,Retention Time 4.7,[18],1.67
same,Retention Time 5.6,[18],84.79
same,Retention Time 2.2,[19],1.33
same,Retention Time 4.2,[19],1.19
same,Retention Time 5.6,[19],97.48
same,Decrease in purity of CV-8972 between time points,[20],2.38
same,Retention Time 2.2,[20],3.73
same,Retention Time 4.2,[20],1.17
same,Retention Time 5.6,[20],95.1
same,Decrease in purity of CV-8972 between time points,[21],2.65
same,Retention Time 2.2,[21],5.25
same,Retention Time 2.6,[21],0.67
same,Retention Time 4.2,[21],0.84
same,Retention Time 4.7,[21],0.79
same,Retention Time 5.6,[21],92.45
same,Decrease in purity of CV-8972 between time points,[22],1.8
same,Retention Time 2.2,[22],6.63
same,Retention Time 2.6,[22],0.9
same,Retention Time 4.2,[22],0.83
same,Retention Time 4.7,[22],0.99
same,Retention Time 5.6,[22],90.65
same,Decrease in purity of CV-8972 between time points,"289-MBA-15-A 2 mg/mL pH 6 (Form B), 22 hrs, pH 6.7",1.5
